How the values were obtained:
[1] = tested on: relapsed or refractory PTCL; experiment: Progressive resistance analysis: PFS and response rate on pralatrexate vs previous lines of therapy (PDX-008, patients as their own control); format: in vivo, human; conditions: for Progression-free Survival Median: Kaplan-Meier
Experimental: Analysis of progressive resistance. The treatment immediately prior to entry into clinical trial PDX-008 provides data from a heterogeneous control group reflecting clinical practice with which to compare the efficacy of pralatrexate. This dataset has the benefit of being from the same patients as those receiving pralatrexate, and so avoids inter-subject variation.
Methodology: In order to explore this progressive resistance concept, retrospective analyses were performed looking at patients' response and PFS to prior therapies using patients as their own control. It was hypothesized that the response rates and PFS would be lower with each subsequent line of therapy (hypothesis #1). Analyses were conducted on those patients who received at least 3 prior therapies. PFS and response rate of third prior therapy (−3) were compared with those of the second prior therapy (−2), PFS and response rate of second prior therapy (−2) were compared with those last line of therapy (−1) prior to pralatrexate, and PFS and response rate of last line of therapy (−1) were compared with pralatrexate therapy for these patients. These analyses utilized investigator assessment of PFS, and response since central review of tumor assessments on prior therapies was not available.
Therefore, an analysis was conducted on all patients comparing PFS and response rate of last line of therapy with those of pralatrexate therapy.
For examining hypothesis #1, there were 57 patients (−3) who had undergone at least 3 prior therapies before entry into PDX-008. […] Examination of the pattern beyond 3 previous treatments would be progressively uninformative as fewer and fewer patients would be entered into the analysis. 1. See also FIG. 2.
There were 86 patients who had undergone at least 2 prior therapies before entry into PDX-008. This cohort included the 57 patients who received 3 or more previous treatments and 29 additional patients who received exactly 2 treatments prior to treatment with pralatrexate.
For examining hypothesis #2, PFS and response rate were compared following pralatrexate treatment with the treatment immediately prior to study entry for all 109 PTCL patients evaluated for efficacy in PDX-008. This cohort included the 86 patients who received 2 or more previous treatments and 23 patients who received only 1 treatment prior to pralatrexate.
Overview of Calculations: Time to progression of disease (PD) was calculated from the start date of the prior therapy administered to the date of progression+1 day.
PFS time was calculated as the number of days from start of prior treatment to the date of PD (date of PD−start date of prior treatment+1).
PFS time was calculated as the number of days from start of treatment to the date of PD or death, regardless of cause (date of PD or death−start date of pralatrexate treatment+1).
In addition, the PFS hazard ratio (HR), along with 95% confidence intervals (CIs), were estimated via the Cox regression model.
To assess the objective response rate (ORR) and PFS with each subsequent line of therapy and the effect of pralatrexate on ORR and PFS: In the first population group (n=57), i.e., group including patients with ≧3 prior systemic therapies, PFS and ORR of the third therapy prior to pralatrexate (−3) were compared with those of the second prior therapy (−2) to pralatrexate; PFS and ORR of the second prior therapy (2) were compared with those of the most recent line of therapy (−1) prior to pralatrexate; and PFS and ORR of the most recent line of therapy (−1) were compared with pralatrexate therapy for these patients.
In the second population group (n=86), i.e., group including patients with ≧2 prior systemic therapies, PFS and ORR of the second prior therapy (2) were compared with those of the most recent line of therapy (−1) prior to pralatrexate; and PFS and ORR of the most recent therapy (−1) were compared with pralatrexate therapy for these patients.

[2] = tested on: patients with relapsed or refractory PTCL; experiment: PROPEL analysis by treatment duration: treatment discontinuation and adverse events; format: in vivo, human
Experimental: The pivotal PROPEL study of pralatrexate (FOLOTYN®) in patients with relapsed or refractory PTCL reported a rapid response to treatment in a heavily pretreated patient population. The majority of patients (63% of responders) responded by their first assessment at 7 weeks (the end of cycle 1). The present analysis assessed if there were any unique characteristics of patients who were unable to complete the first cycle of therapy and to assess the outcomes of patients who received ≧1 or ≧2 cycles of pralatrexate. Pralatrexate, a folate analog targeting dihydrofolate reductase, was approved in the United States for treatment of relapsed or refractory PTCL based on the PROPEL study. Methods: In PROPEL, patients received 30 mg/m^2 pralatrexate once weekly for 6 weeks in successive 7-week cycles. […] Cycle completion was determined receiving ≧1 dose in the following cycle. Thus, the subgroup of patients who completed ≧1 (n=64) includes those patients who only completed 1 cycle+the 43 who completed ≧2 cycles of treatment. […] However, the patients not completing cycle lwere more likely to have the angioimmunoblastic subtype (20% vs 6%). Patients in each subgroup received a median of 3 prior treatment regimens.
The most frequent reasons for treatment discontinuation were similar for patients with <1 cycle, ≧1 cycle or ≧2 cycles, although the incidence of discontinuation was lower for patients with ≧1 or 2 cycles. […] However, the percentage of patients in whom mucosal inflammation led to treatment discontinuation was similar (<1: 4%; ≧1: 6%; ≧2: 2%). […] Patients who were unable to complete cycle 1 were more likely to have quickly progressed through multiple lines of therapy and were more likely to have the angioimmunoblastic subtype, which a subtype is thought to have a different biology than other PTCL subtypes and lower chemosensitivity. Further analysis of this subtype is warranted.

[3] = all patients (≧1 prior therapy), N=109, investigator assessment
[4] = patients with ≧2 previous treatments, N=86, investigator assessment
[5] = patients with ≧3 previous treatments, N=57, investigator assessment

C#CCC(Cc1cnc2nc(N)nc(N)c2n1)c1ccc(C(=O)N[C@@H](CCC(=O)O)C(=O)O)cc1 (mixture of isomers) [Pralatrexate, (2S)-2-[[4-[(1RS)-1-[(2,4-diaminopteridin-6-yl)methyl]but-3-ynyl]benzoyl]amino]pentanedioic acid]
Response Rate [1, 3]: 39%
Progression-free Survival Median [1, 3]: 121.00 days
PFS Hazard Ratio, −1 vs pralatrexate ([1]; all patients, N=109, Cox regression, 95% CI): 1.051
Response Rate (ORR) [1, 4]: 40%
Progression-free Survival Median [1, 4]: 119.00 days
Progression-free Survival Median ([1]; patients with ≧2 previous treatments, N=86, investigator assessment, listed as pralatrexate): 119 days
Trend of decreased ORR and PFS with successive lines of therapy ([1]; patients with ≧3 or ≧2 previous treatments): reversed
Response Rate (ORR) [1, 5]: 40%
Progression-free Survival Median [1, 5]: 134.00 days
Progression-free Survival Median ([1]; patients with ≧3 previous treatments, N=57, investigator assessment, listed as pralatrexate): 134 days
Additional patients with dose reductions in cycle 2 due to mucosal inflammation who continued treatment ([2]; 4 patients): 9%
Discontinued due to adverse events (AEs) ([2]; 45 patients who did not complete cycle 1): 29%
Incidence of Grade 3-4 anemia ([2]; <1 cycle): 27%
Incidence of Grade 3-4 mucosal inflammation ([2]; <1 cycle): 24%
Incidence of Grade 3-4 thrombocytopenia ([2]; <1 cycle): 40%
Patients in whom mucosal inflammation led to treatment discontinuation ([2]; <1 cycle): 4%
Patients with dose reductions due to mucosal inflammation in cycle 1 who continued treatment ([2]; Eight patients): 13%
Patients with a response to pralatrexate ([2]; of the 4 patients with dose reductions in cycle 2 due to mucosal inflammation): 3 patients
Patients with a response to pralatrexate ([2]; of the 8 patients with dose reductions due to mucosal inflammation in cycle 1): 4 patients
Incidence of Grade 3-4 anemia ([2]; ≧1 cycle): 13%
Incidence of Grade 3-4 mucosal inflammation ([2]; ≧1 cycle): 19%
Incidence of Grade 3-4 thrombocytopenia ([2]; ≧1 cycle): 28%
Patients in whom mucosal inflammation led to treatment discontinuation ([2]; ≧1 cycle): 6%
Incidence of Grade 3-4 anemia ([2]; ≧2 cycles): 9%
Incidence of Grade 3-4 mucosal inflammation ([2]; ≧2 cycles): 12%
Incidence of Grade 3-4 thrombocytopenia ([2]; ≧2 cycles): 21%
Patients in whom mucosal inflammation led to treatment discontinuation ([2]; ≧2 cycles): 2%

Reference: patent publication US20130178441A1, “Methods for Extending Progression-Free Survival using 10-Propargyl-10-Deazaaminopterin” (ALLOS THERAPEUTICS, INC., priority 2010, published 2013)
